Experimental data published in PubChem BioAssay AID1963982 (Molecular Pharmacology Branch, DTP, NCI, 2024).

System: 313798-341-R-J2-PDC spheroids, viability
Experiment: Anticancer human tumor 313798-341-R-J2-PDC patient-derived cervical squamous cell carcinoma cell line growth inhibition [PI3K]
Conditions: spheroids with HUVEC and MSC; for IC50: curve of first compound; for viability, T/C: stronger effect = lower value
Method in brief: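 Combination activity was assessed by viability in multicellular tumor spheroids carrying HUVEC and MSC components. Agents were tested with PI3K inhibitors from a Cmax-based top dose (or 10 microM) downward in half-log increments.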

[1] = second compound 0.00316 µM, first compound 0.0316 µM
[2] = second compound 0.00316 µM, first compound 0.1 µM
[3] = second compound 0.00316 µM, first compound 0.316 µM
[4] = second compound 0.00316 µM, first compound 1 µM
[5] = second compound 0.01 µM, first compound 0.0316 µM
[6] = second compound 0.01 µM, first compound 0.1 µM
[7] = second compound 0.01 µM, first compound 0.316 µM
[8] = second compound 0.01 µM, first compound 1 µM
[9] = second compound 0.0316 µM, first compound 0.0316 µM
[10] = second compound 0.0316 µM, first compound 0.1 µM
[11] = second compound 0.0316 µM, first compound 0.316 µM
[12] = second compound 0.0316 µM, first compound 1 µM
[13] = second compound 0.1 µM, first compound 0.0316 µM
[14] = second compound 0.1 µM, first compound 0.1 µM
[15] = second compound 0.1 µM, first compound 0.316 µM
[16] = second compound 0.1 µM, first compound 1 µM
[17] = second compound 0.316 µM, first compound 0.0316 µM
[18] = second compound 0.316 µM, first compound 0.1 µM
[19] = second compound 0.316 µM, first compound 0.316 µM
[20] = second compound 0.316 µM, first compound 1 µM
[21] = second compound 1 µM, first compound 0.0316 µM
[22] = second compound 1 µM, first compound 0.1 µM
[23] = second compound 1 µM, first compound 0.316 µM
[24] = second compound 1 µM, first compound 1 µM
[25] = second compound 0.00316 µM, first compound 3.16 µM
[26] = second compound 0.00316 µM, first compound 10 µM
[27] = second compound 0.01 µM, first compound 3.16 µM
[28] = second compound 0.01 µM, first compound 10 µM
[29] = second compound 0.0316 µM, first compound 3.16 µM
[30] = second compound 0.0316 µM, first compound 10 µM
[31] = second compound 0.1 µM, first compound 3.16 µM
[32] = second compound 0.1 µM, first compound 10 µM
[33] = second compound 0.316 µM, first compound 3.16 µM
[34] = second compound 0.316 µM, first compound 10 µM
[35] = second compound 1 µM, first compound 3.16 µM
[36] = second compound 1 µM, first compound 10 µM
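Further: spheroids exposed to compounds for seven days.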
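Wherever viability, T/C is given: 100% = DMSO vehicle control viability.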

`CCN1CCN(Cc2ccc(Nc3ncc(F)c(-c4cc(F)c5nc(C)n(C(C)C)c5c4)n3)nc2)CC1` + COc1c(OCCCN2CCOCC2)ccc2c3n(c(=NC(=O)c4cnc(N)nc4)nc12)CCN3 was tested, and the IC50 (second compound 0.00316 µM) was over 1000 nM, the IC50 (second compound 0.01 µM) was over 1000 nM and the IC50 (second compound 0.0316 µM) was over 1000 nM. It also gave an IC50 (second compound 0.1 µM) of under 3.16 nM, an IC50 (second compound 0.316 µM) of under 3.16 nM and an IC50 (second compound 1 µM) of under 3.16 nM. It also gave a viability, T/C (second compound 0.00316 µM, first compound 0.00316 µM) of 99.7%, a viability, T/C (second compound 0.00316 µM, first compound 0.01 µM) of 102% and a viability, T/C [1] of 117%. For the same molecule, the viability, T/C [2] was 111%, the viability, T/C [3] was 119% and the viability, T/C [4] was 105%. It also gave a viability, T/C (second compound 0.01 µM, first compound 0.00316 µM) of 98.6%, a viability, T/C (second compound 0.01 µM, first compound 0.01 µM) of 91% and a viability, T/C [5] of 99%. It also gave a viability, T/C [6] of 125%, a viability, T/C [7] of 113% and a viability, T/C [8] of 102%. For the same molecule, the viability, T/C (second compound 0.0316 µM, first compound 0.00316 µM) was 83.7%, the viability, T/C (second compound 0.0316 µM, first compound 0.01 µM) was 86.6% and the viability, T/C [9] was 77.3%. It also gave a viability, T/C [10] of 80.7%, a viability, T/C [11] of 90% and a viability, T/C [12] of 80%. For the same molecule, the viability, T/C (second compound 0.1 µM, first compound 0.00316 µM) was 43.1%, the viability, T/C (second compound 0.1 µM, first compound 0.01 µM) was 44% and the viability, T/C [13] was 43.4%. For the same molecule, the viability, T/C [14] was 36.6%, the viability, T/C [15] was 41.9% and the viability, T/C [16] was 45.9%. For the same molecule, the viability, T/C (second compound 0.316 µM, first compound 0.00316 µM) was 13.6%, the viability, T/C (second compound 0.316 µM, first compound 0.01 µM) was 15.5% and the viability, T/C [17] was 14.5%. For the same molecule, the viability, T/C [18] was 16.4%, the viability, T/C [19] was 19.8% and the viability, T/C [20] was 30%. For the same molecule, the viability, T/C (second compound 1 µM, first compound 0.00316 µM) was 11.4%, the viability, T/C (second compound 1 µM, first compound 0.01 µM) was 14.3% and the viability, T/C [21] was 13.9%. It also gave a viability, T/C [22] of 11.7%, a viability, T/C [23] of 18.3% and a viability, T/C [24] of 27.4%.
Molecule `Cn1ncc(Cl)c1-c1cc(C(=O)NC(CN)Cc2cccc(F)c2)sc1Cl` (stereo unspecified) + COc1c(OCCCN2CCOCC2)ccc2c3n(c(=NC(=O)c4cnc(N)nc4)nc12)CCN3 has an IC50 (second compound 0.00316 µM) of 930 nM, an IC50 (second compound 0.01 µM) of 678 nM and an IC50 (second compound 0.0316 µM) of 280 nM. For the same molecule, the IC50 (second compound 0.1 µM) was under 31.6 nM, the IC50 (second compound 0.316 µM) was under 31.6 nM and the IC50 (second compound 1 µM) was under 31.6 nM. It also gave a viability, T/C [1] of 107%, a viability, T/C [2] of 84.7% and a viability, T/C [3] of 71%. The viability, T/C [4] was 46.7%, the viability, T/C [25] was 36.6% and the viability, T/C [26] was 35.5%. For the same molecule, the viability, T/C [5] was 100%, the viability, T/C [6] was 99% and the viability, T/C [7] was 69.2%. The viability, T/C [8] was 41.6%, the viability, T/C [27] was 30.8% and the viability, T/C [28] was 36.8%. It also gave a viability, T/C [9] of 99.3%, a viability, T/C [10] of 61.9% and a viability, T/C [11] of 53.7%. It also gave a viability, T/C [12] of 36.4%, a viability, T/C [29] of 25.2% and a viability, T/C [30] of 25.5%. For the same molecule, the viability, T/C [13] was 49.4%, the viability, T/C [14] was 43.5% and the viability, T/C [15] was 41.4%. For the same molecule, the viability, T/C [16] was 27.1%, the viability, T/C [31] was 20.2% and the viability, T/C [32] was 15.4%. It also gave a viability, T/C [17] of 17.5%, a viability, T/C [18] of 18.1% and a viability, T/C [19] of 15.2%. The viability, T/C [20] was 16.6%, the viability, T/C [33] was 13% and the viability, T/C [34] was 5.97%. The viability, T/C [21] was 12.7%, the viability, T/C [22] was 12.4% and the viability, T/C [23] was 13.6%. For the same molecule, the viability, T/C [24] was 12.3%, the viability, T/C [35] was 9.74% and the viability, T/C [36] was 3.3%.
Work on `Cn1nccc1Nc1nccc(-c2ccn(C(CO)c3ccc(Cl)c(F)c3)c(=O)c2)n1` (stereo unspecified) + COc1c(OCCCN2CCOCC2)ccc2c3n(c(=NC(=O)c4cnc(N)nc4)nc12)CCN3 yielded an IC50 (second compound 0.00316 µM) of over 10000 nM, an IC50 (second compound 0.01 µM) of over 10000 nM and an IC50 (second compound 0.0316 µM) of over 10000 nM. The IC50 (second compound 0.1 µM) was under 31.6 nM, the IC50 (second compound 0.316 µM) was under 31.6 nM and the IC50 (second compound 1 µM) was under 31.6 nM. For the same molecule, the viability, T/C [1] was 100%, the viability, T/C [2] was 97% and the viability, T/C [3] was 106%. For the same molecule, the viability, T/C [4] was 111%, the viability, T/C [25] was 102% and the viability, T/C [26] was 90.1%. The viability, T/C [5] was 104%, the viability, T/C [6] was 108% and the viability, T/C [7] was 97.8%. It also gave a viability, T/C [8] of 106%, a viability, T/C [27] of 94% and a viability, T/C [28] of 89.5%. It also gave a viability, T/C [9] of 75.8%, a viability, T/C [10] of 83.2% and a viability, T/C [11] of 69.5%. The viability, T/C [12] was 77.1%, the viability, T/C [29] was 66.5% and the viability, T/C [30] was 55.6%. For the same molecule, the viability, T/C [13] was 38.2%, the viability, T/C [14] was 43.3% and the viability, T/C [15] was 41%. The viability, T/C [16] was 38.4%, the viability, T/C [31] was 34.7% and the viability, T/C [32] was 32%. It also gave a viability, T/C [17] of 16.6%, a viability, T/C [18] of 15.3% and a viability, T/C [19] of 12.2%. The viability, T/C [20] was 9.87%, the viability, T/C [33] was 9.43% and the viability, T/C [34] was 7.53%. For the same molecule, the viability, T/C [21] was 10.9%, the viability, T/C [22] was 9.68% and the viability, T/C [23] was 7.11%. The viability, T/C [24] was 5.54%, the viability, T/C [35] was 4.07% and the viability, T/C [36] was 2.53%.
